Measured values as given in patent publication US20030059774A1, “Detection of CYP2C19 polymorphisms” (priority 2000, published 2003).

Test system: CYP2C19
Assay: Omeprazole metabolic ratio (MR) phenotyping of study subjects, correlated with CYP2C19 5' flanking region haplotypes
Type: in vivo, human
Conditions: for MR (Ome), predicted metabolic ratio: based on 144 samples; for MR-range (min-max): omeprazole 20 mg oral, 3 hours; for mr50 (metabolic ratio of the 50th percentile), mr(omeprazole): single oral dose 20 mg omeprazole, blood sample 3 hours after intake
Method: The study was performed in accordance with the principles stated in the Declaration of Helsinki as reviewed in Tokyo 1975 and Venice 1983, Hong Kong 1989 and Somerset West 1996. Subjects were preferably not related to each other. Based on questioning, individuals having one of the following were excluded: a medical condition judged to influence liver function or requiring pharmacological treatment; any on-going disease; intake of any drug, except oral contraceptives, during one week prior to the study; breast-feeding or pregnancy. No physical examination was performed. For these experiments, a single oral dose of 20 mg omeprazole (Losec, AstraZeneca) was given in the morning after an overnight fast. The bladder was emptied before drug intake. A single blood sample was collected 3 hours after drug intake.
In the first part of the study, approximately 90 samples (Swedish Caucasians) were selected as set forth in Table 1, on the basis of the following assumptions: if the distribution of an unknown polymorphism will be 25% for a homozygote, a sample size of approximately 40 “UEM” will be able to detect an increase in this specific genotype (homozygote) by 28% (α=5% (two-tailed), power=80%). If it is assumed that the distribution of an unknown polymorphism will be 10% for a homozygote, a sample size of approximately 40 “UEM” will be able to detect an increase in this specific genotype (homozygote) by 21% (α-5% (two-tailed), power=80%). The samples were selected with regard to their phenotyped metabolic ratios (MR) of omeprazole. Available genotype information for all samples was provided.
In the second part of the study, 71 samples with a more normal phenotypic distribution were used. Also, no exclusion of individuals with known defective alleles or duplications was done.
This analysis was performed using software based on maximum likelihood methodology and using the EM algorithm of Excoffier et al. (1995), Mol Biol Evol. 12:921-927. […] From the haplotype information two different kinds of variables were created: one variable was formed as a haplotype combination variable (HTYPE). This variable has the value H1/H2 when the subject has haplotypes 1 and 2, etc. Variables H1, H2, H3 and H4 are haplotype annotations that denote the number of copies of that particular haplotype for the subject, e.g., for a subject with haplotype H1/H2 the variables H1, H2, H3 and H4 will be 1, 1, 0 and 0, respectively. Each of these variables can thus take on the values 0, 1 or 2. Only the four most frequent haplotypes were considered when those variables were formed.

MR (Ome), predicted metabolic ratio (HTYPE H1/H1 (352 C, 1060 T), marker for EM): 0.2-0.8
MR-range (min-max) (HTYPE H1/H1, 63 subjects): 0.17-2.90
MR (Ome), predicted metabolic ratio (HTYPE H1/H2 (352 C/T, 1060 T), marker for UEM & EM): <0.8
MR-range (min-max) (HTYPE H1/H2, 31 subjects): 0.12-2.62
MR (Ome), predicted metabolic ratio (HTYPE H1/H3 (352 C, 1060 C/T), marker for EM &IM): 0.4-7.0
MR-range (min-max) (HTYPE H1/H3, 27 subjects): 0.03-11.87
MR (Ome), predicted metabolic ratio (HTYPE H2/H2 (352 T, 1060 T), marker for UEM/EM): <0.4
MR-range (min-max) (HTYPE H2/H2, 4 subjects): 0.15-0.33
MR (Ome), predicted metabolic ratio (HTYPE H2/H3 (352 C/T, 1060 C/T), marker for EM & (IM)): 0.4-2.0
MR-range (min-max) (HTYPE H2/H3, 12 subjects): 0.36-1.75
MR (Ome), predicted metabolic ratio (HTYPE H3/H3 (352 C, 1060 C), marker for PM): >7.0
MR-range (min-max) (HTYPE H3/H3, 7 subjects): 1.28-23.75
mr50 (metabolic ratio of the 50th percentile), mr(omeprazole) (haplotype H1/H1, n = 60): mr50 = 0.485
mr50 (metabolic ratio of the 50th percentile), mr(omeprazole) (haplotype H1/—, n = 63): mr50 = 0.63
mr50 (metabolic ratio of the 50th percentile), mr(omeprazole) (haplotype H2/H2, n = 4): mr50 = 0.25
mr50 (metabolic ratio of the 50th percentile), mr(omeprazole) (haplotype H2/—, n = 44): mr50 = 0.485
mr50 (metabolic ratio of the 50th percentile), mr(omeprazole) (haplotype H3/H3, n = 7): mr50 = 16.86
mr50 (metabolic ratio of the 50th percentile), mr(omeprazole) (haplotype H3/—, n = 39): mr50 = 0.88
mr50 (metabolic ratio of the 50th percentile), mr(omeprazole) (haplotype H4/H4, n = 2): mr50 = 1.5
mr50 (metabolic ratio of the 50th percentile), mr(omeprazole) (haplotype H4/—, n = 14): mr50 = 0.755
mr50 (metabolic ratio of the 50th percentile), mr(omeprazole) (haplotype —/— (no copy of H1), n = 30): mr50 = 0.97
mr50 (metabolic ratio of the 50th percentile), mr(omeprazole) (haplotype —/— (no copy of H2), n = 105): mr50 = 0.64
mr50 (metabolic ratio of the 50th percentile), mr(omeprazole) (haplotype —/— (no copy of H3), n = 107): mr50 = 0.47
mr50 (metabolic ratio of the 50th percentile), mr(omeprazole) (haplotype —/— (no copy of H4), n = 137): mr50 = 0.56
Compound: COc1ccc2[nH]c([S+]([O-])Cc3ncc(C)c(OC)c3C)nc2c1 (stereo not drawn) [omeprazole]
